Active and inactive are the calls of the source. The calls are words filed in the database; no cut-off is given here. Bridge positions count the residues as written; N and C are the ends. Square brackets hold non-standard residues; d marks the D form. Triazole bridges read from a SMILES are 1,4-linked. Peptide text beside a SMILES is read from it. Lys(N3) = [N-]=[N+]=NCCCC[C@H](N)C(=O)O; Orn(N3) = [N-]=[N+]=NCCC[C@H](N)C(=O)O; Hpra = C#CCC[C@H](N)C(=O)O; Pra = C#CC[C@H](N)C(=O)O
How the values were obtained:
B16-BL6 = test: Cytotoxicity against mouse B16-BL6 cells at 1.56 to 100 uM incubated for 30 mins with compound in HOS solution by LDH assay; type: toxicity, cell-based; settings: b16-bl6, 0.5 h, dose 1.56-100 µM
[1] = molecular target: Pannexin-1 (Mus musculus) (UniProt Q9JIP4); test: Inhibition of PANX1 in mouse B16-BL6 cells assessed as reduction in HOS-induced ATP release at 100 uM preincubated for 10 mins followed by HOS solution addition and measured after 30 mins by bioluminescence analysis; type: cell-based; settings: time 40.0 min
Pannexin-1 (Mus musculus), sequence (Q9JIP4 whole entry): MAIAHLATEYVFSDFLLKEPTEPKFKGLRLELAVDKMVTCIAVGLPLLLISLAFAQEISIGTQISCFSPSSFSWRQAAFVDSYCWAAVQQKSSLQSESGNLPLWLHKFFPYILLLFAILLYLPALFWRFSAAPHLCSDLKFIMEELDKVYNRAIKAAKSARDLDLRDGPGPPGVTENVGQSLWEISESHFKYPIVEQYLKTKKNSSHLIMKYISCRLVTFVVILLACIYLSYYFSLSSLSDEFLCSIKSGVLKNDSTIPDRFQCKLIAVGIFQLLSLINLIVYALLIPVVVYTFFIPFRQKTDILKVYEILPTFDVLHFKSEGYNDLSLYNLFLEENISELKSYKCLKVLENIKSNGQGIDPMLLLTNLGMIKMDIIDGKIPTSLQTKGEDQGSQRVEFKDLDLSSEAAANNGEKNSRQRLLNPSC

CC(=O)N[C@H]1Cc2cn(nn2)CCCC[C@H](C(=O)N[C@@H](C)C(=O)N[C@@H](Cc2ccccc2)C(=O)N[C@H](C(=O)N[C@@H](CC(=O)O)C(=O)N[C@@H](CO)C(=O)N[C@@H](Cc2ccc(O)cc2)C(N)=O)C(C)C)NC(=O)[C@H](CCC(N)=O)NC(=O)[C@H](CCCNC(=N)N)NC(=O)[C@H](Cc2c[nH]c3ccccc23)NC1=O
Activity (B16-BL6): Non-Toxic
inhibition [1]: inactive

CC(=O)N[C@@H](CO)C(=O)N[C@@H](Cc1c[nH]c2ccccc12)C(=O)N[C@@H](CCCNC(=N)N)C(=O)N[C@@H](CCC(N)=O)C(=O)N[C@@H](C)C(=O)N[C@H]1Cc2cn(nn2)CCC[C@@H](C(=O)N[C@@H](Cc2ccc(O)cc2)C(N)=O)NC(=O)[C@H](CC(=O)O)NC(=O)[C@H](C(C)C)NC(=O)[C@H](Cc2ccccc2)NC1=O (Ac-SWRQA[Pra]FVD[Orn(N3)]Y-NH2; triazole 6-10)
inhibition [1]: inactive

CC(=O)N[C@@H](CO)C(=O)N[C@@H](Cc1c[nH]c2ccccc12)C(=O)N[C@@H](CCCNC(=N)N)C(=O)N[C@@H](CCC(N)=O)C(=O)N[C@@H](C)C(=O)N[C@@H](C)C(=O)N[C@@H](Cc1ccccc1)C(=O)N[C@H]1Cc2cn(nn2)CCCC[C@@H](C(N)=O)NC(=O)[C@H](Cc2ccc(O)cc2)NC(=O)[C@H](CO)NC(=O)[C@H](CC(=O)O)NC1=O (Ac-SWRQAAF[Pra]DSY[Lys(N3)]-NH2; triazole 8-12)
inhibition [1]: inactive

CC(=O)N[C@@H](CO)C(=O)N[C@@H](Cc1c[nH]c2ccccc12)C(=O)N[C@@H](CCCNC(=N)N)C(=O)N[C@@H](CCC(N)=O)C(=O)N[C@@H](C)C(=O)N[C@H]1CCCCn2cc(nn2)C[C@@H](C(=O)N[C@@H](Cc2ccc(O)cc2)C(N)=O)NC(=O)[C@H](CC(=O)O)NC(=O)[C@H](C(C)C)NC(=O)[C@H](Cc2ccccc2)NC1=O (Ac-SWRQA[Lys(N3)]FVD[Pra]Y-NH2; triazole 6-10)
Activity (B16-BL6): Non-Toxic
inhibition [1]: Active

CC(=O)N[C@@H](CO)C(=O)N[C@@H](Cc1c[nH]c2ccccc12)C(=O)N[C@@H](CCCNC(=N)N)C(=O)N[C@@H](CCC(N)=O)C(=O)N[C@@H](C)C(=O)N[C@@H](C)C(=O)N[C@H]1Cc2cn(nn2)CCCC[C@@H](C(=O)O)NC(=O)[C@H](CO)NC(=O)[C@H](CC(=O)O)NC(=O)[C@H](C(C)C)NC1=O (Ac-SWRQAA[Pra]VDS[Lys(N3)]-OH; triazole 7-11)
inhibition [1]: inactive

CC(=O)N[C@@H](CO)C(=O)N[C@@H](Cc1c[nH]c2ccccc12)C(=O)N[C@@H](CCCNC(=N)N)C(=O)N[C@@H](CCC(N)=O)C(=O)N[C@@H](C)C(=O)N[C@H]1CCc2cn(nn2)CCCC[C@@H](C(=O)N[C@@H](Cc2ccc(O)cc2)C(N)=O)NC(=O)[C@H](CC(=O)O)NC(=O)[C@H](C(C)C)NC(=O)[C@H](Cc2ccccc2)NC1=O (Ac-SWRQA[Hpra]FVD[Lys(N3)]Y-NH2; triazole 6-10)
Activity (B16-BL6): Non-Toxic
inhibition [1]: Active

CC(=O)N[C@@H](CO)C(=O)N[C@@H](Cc1c[nH]c2ccccc12)C(=O)N[C@@H](CCCNC(=N)N)C(=O)N[C@@H](CCC(N)=O)C(=O)N[C@@H](C)C(=O)N[C@@H](C)C(=O)N[C@@H](Cc1ccccc1)C(=O)N[C@H]1Cc2cn(nn2)CCC[C@@H](C(N)=O)NC(=O)[C@H](Cc2ccc(O)cc2)NC(=O)[C@H](CO)NC(=O)[C@H](CC(=O)O)NC1=O (Ac-SWRQAAF[Pra]DSY[Orn(N3)]-NH2; triazole 8-12)
inhibition [1]: inactive

CC(=O)N[C@H]1Cc2cn(nn2)CCC[C@@H](C(=O)N[C@@H](C)C(=O)N[C@@H](Cc2ccccc2)C(=O)N[C@H](C(=O)N[C@@H](CC(=O)O)C(=O)N[C@@H](CO)C(=O)N[C@@H](Cc2ccc(O)cc2)C(N)=O)C(C)C)NC(=O)[C@H](CCC(N)=O)NC(=O)[C@H](CCCNC(=N)N)NC(=O)[C@H](Cc2c[nH]c3ccccc23)NC1=O (Ac-[Pra]WRQ[Orn(N3)]AFVDSY-NH2; triazole 1-5)
inhibition [1]: inactive

Reference: ChEMBL document CHEMBL5365478, “Structure-Based Design and Synthesis of Stapled 10Panx1 Analogues for Use in Cardiovascular Inflammatory Diseases” (J Med Chem, 2023)
